# From ChEMBL document CHEMBL5034031, “Discovery of Next-Generation Tropomyosin Receptor Kinase Inhibitors for Combating Multiple Resistance Associated with Protein Mutation” (J Med Chem, 2021)
# Tests used:
# [1] = Toxicity in BALB/c mouse xenografted with mouse BAF3 cells harboring TMP3 fused wild type TRKA assessed as mortality at 15 mg/kg, po administered twice daily for 12 to […] consecutive days; assay type: organism-based; conditions: in vivo, time 12-14 day
# [2] = biological target: High affinity nerve growth factor receptor (Homo sapiens, UniProt P04629); assay: Inhibition of TRKA (unknown origin) at 1 uM relative to control
# High affinity nerve growth factor receptor (Homo sapiens, UniProt P04629), sequence (P04629 33-796 limits assumed): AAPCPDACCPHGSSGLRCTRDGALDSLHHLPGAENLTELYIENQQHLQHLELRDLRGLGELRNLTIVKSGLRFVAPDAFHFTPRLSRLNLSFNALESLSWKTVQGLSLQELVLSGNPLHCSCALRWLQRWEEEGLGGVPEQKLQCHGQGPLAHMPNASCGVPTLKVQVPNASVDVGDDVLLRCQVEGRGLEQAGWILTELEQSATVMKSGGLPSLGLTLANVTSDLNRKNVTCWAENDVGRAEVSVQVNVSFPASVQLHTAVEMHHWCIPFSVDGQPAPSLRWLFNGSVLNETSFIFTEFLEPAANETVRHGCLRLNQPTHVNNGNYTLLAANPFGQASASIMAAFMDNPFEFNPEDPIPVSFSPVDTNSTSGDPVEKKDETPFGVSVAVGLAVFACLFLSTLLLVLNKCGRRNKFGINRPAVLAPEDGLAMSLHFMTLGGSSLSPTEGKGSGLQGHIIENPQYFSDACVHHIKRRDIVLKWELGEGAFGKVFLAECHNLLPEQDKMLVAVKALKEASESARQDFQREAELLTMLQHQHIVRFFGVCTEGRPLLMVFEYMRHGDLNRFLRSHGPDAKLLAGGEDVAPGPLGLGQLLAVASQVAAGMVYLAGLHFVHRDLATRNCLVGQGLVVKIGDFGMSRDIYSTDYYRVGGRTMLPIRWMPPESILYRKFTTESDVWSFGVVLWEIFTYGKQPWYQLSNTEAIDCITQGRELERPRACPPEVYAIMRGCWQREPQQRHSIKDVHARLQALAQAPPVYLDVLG
# [3] = biological target: Voltage-gated inwardly rectifying potassium channel KCNH2 (Homo sapiens, UniProt Q12809); assay: Inhibition of hERG
# [4] = biological target: Tyrosine-protein kinase ZAP-70 (Homo sapiens) (UniProt P43403); assay: Inhibition of ZAP70 (unknown origin) at 1 uM relative to control
# [5] = AUC(0 to infinity) in Sprague-Dawley rat at 5 mg/kg, ig measured upto 24 hrs by LC-MS/MS analysis; assay type: ADME, organism-based; design: route […], dose 5 mg/kg, time <=24; conditions: in vivo, po
# [6] = Cmax in Beagle dog at 1 mg/kg, iv measured upto 24 hrs by LC-MS/MS analysis; assay type: ADME, organism-based, Canis lupus familiaris; design: route intravenous, dose 1 mg/kg, time <=24; conditions: in vivo
# [7] = biological target: Tyrosine-protein kinase ABL2 (Homo sapiens) (UniProt P42684); assay: Inhibition of ABL2 (unknown origin) at 1 uM relative to control
# [8] = tested on: BaF3; assay: Antitumor activity against mouse BAF3 cells harboring TMP3 fused wild type TRKA xenografted in BALB/c nude mouse assessed as tumor growth inhibition at 5 mg/kg, po administered twice daily for 12 to […] consecutive days; assay type: functional; conditions: time 12-14 day, read-out: TGI
# [9] = biological target: Dual specificity protein kinase CLK2 (Homo sapiens) (UniProt P49760); assay: Inhibition of CLK2 (unknown origin) at 1 uM relative to control
# Dual specificity protein kinase CLK2 (Homo sapiens), sequence (P49760 whole entry, looked up): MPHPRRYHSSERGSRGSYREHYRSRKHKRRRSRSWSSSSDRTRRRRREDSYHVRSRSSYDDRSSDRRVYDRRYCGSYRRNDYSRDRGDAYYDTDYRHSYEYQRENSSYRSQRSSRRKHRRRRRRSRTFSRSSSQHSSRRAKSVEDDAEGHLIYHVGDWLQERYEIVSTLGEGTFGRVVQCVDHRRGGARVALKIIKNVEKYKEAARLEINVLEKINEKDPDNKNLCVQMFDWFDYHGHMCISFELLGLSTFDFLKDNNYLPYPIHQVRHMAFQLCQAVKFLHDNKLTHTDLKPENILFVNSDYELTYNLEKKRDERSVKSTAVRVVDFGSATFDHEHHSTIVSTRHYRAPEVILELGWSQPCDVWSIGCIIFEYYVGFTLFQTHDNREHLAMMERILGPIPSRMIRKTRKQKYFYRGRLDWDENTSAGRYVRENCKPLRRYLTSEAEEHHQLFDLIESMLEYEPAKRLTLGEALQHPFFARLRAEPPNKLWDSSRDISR
# [10] = tested on: BaF3; assay type: functional, cell-based; conditions: Mus musculus, BaF3, 72 h
# [11] = Volume of distribution in Beagle dog at 5 mg/kg, ig measured upto 24 hrs by LC-MS/MS analysis; assay type: ADME, organism-based, Canis lupus familiaris; conditions: in vivo, po
# [12] = Volume of distribution in Beagle dog at 1 mg/kg, iv measured upto 24 hrs by LC-MS/MS analysis; assay type: ADME, organism-based, Canis lupus familiaris; conditions: in vivo, read-out: Vz
# [13] = biological target: NT-3 growth factor receptor (Homo sapiens) (UniProt Q16288); assay: Inhibition of TRKC (unknown origin) at 1 uM relative to control
# [14] = biological target: Inhibitor of nuclear factor kappa-B kinase subunit beta (Homo sapiens) (UniProt O14920); assay: Inhibition of IKBKB (unknown origin) at 1 uM relative to control
# [15] = tested on: BaF3; assay: Antiproliferative activity against mouse BaF3 cells transfected with ETV6-wild type TRKC assessed as cell viability incubated for 72 hrs by CCK8 assay; assay type: functional, cell-based; conditions: BaF3, 72 h
# [16] = biological target: Serine/threonine-protein kinase Chk1 (Homo sapiens) (UniProt O14757); assay: Inhibition of CHK1 (unknown origin) at 1 uM relative to control
# [17] = biological target: SRSF protein kinase 1 (Homo sapiens) (UniProt Q96SB4); assay: Inhibition of SRPK1 (unknown origin) at 1 uM relative to control
# [18] = biological target: [Pyruvate dehydrogenase (acetyl-transferring)] kinase isozyme 1, mitochondrial (Homo sapiens) (UniProt Q15118); assay: Inhibition of PDK1 (unknown origin) at 1 uM relative to control
# [19] = biological target: hERG (KCNH2) (Homo sapiens, UniProt Q12809); assay: Inhibition of hERG at 10 uM relative to control
# hERG (KCNH2), sequence (Q12809 whole entry): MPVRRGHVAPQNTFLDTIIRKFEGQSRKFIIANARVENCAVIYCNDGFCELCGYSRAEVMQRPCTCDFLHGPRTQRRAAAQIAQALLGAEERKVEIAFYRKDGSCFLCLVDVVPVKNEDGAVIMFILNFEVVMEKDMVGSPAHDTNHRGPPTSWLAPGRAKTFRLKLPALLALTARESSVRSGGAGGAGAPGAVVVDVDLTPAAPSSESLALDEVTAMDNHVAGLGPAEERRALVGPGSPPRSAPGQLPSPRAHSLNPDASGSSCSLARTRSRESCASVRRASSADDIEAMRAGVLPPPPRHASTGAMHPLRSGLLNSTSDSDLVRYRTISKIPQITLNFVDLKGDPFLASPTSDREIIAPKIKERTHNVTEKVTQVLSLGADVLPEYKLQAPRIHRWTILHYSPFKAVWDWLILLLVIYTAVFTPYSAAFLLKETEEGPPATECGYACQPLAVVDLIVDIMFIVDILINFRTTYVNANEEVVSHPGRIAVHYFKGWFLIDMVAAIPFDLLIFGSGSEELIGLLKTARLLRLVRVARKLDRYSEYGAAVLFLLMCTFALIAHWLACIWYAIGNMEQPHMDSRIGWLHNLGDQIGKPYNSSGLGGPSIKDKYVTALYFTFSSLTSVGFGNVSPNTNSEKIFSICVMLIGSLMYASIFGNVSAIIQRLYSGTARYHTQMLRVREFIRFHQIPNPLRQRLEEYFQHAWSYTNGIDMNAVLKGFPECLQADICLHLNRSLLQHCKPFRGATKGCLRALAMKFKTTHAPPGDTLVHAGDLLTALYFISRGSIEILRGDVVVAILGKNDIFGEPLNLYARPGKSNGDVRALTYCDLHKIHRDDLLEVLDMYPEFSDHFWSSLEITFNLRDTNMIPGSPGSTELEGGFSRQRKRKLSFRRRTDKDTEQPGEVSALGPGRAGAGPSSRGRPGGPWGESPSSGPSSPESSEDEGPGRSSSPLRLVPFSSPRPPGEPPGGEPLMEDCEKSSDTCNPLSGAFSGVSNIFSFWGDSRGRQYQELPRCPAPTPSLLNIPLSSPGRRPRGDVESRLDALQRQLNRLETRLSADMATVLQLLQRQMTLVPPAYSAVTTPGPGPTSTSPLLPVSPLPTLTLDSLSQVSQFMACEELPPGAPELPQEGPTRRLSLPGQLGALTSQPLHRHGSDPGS
# [20] = biological target: Maternal embryonic leucine zipper kinase (Homo sapiens) (UniProt Q14680); assay: Inhibition of MELK (unknown origin) at 1 uM relative to control
# [21] = tested on: BaF3; assay: Antitumor activity against mouse BAF3 cells harboring ETV6 fused TRKC G623R mutant xenografted in BALB/c nude mouse assessed as tumor growth inhibition at 30 mg/kg, po administered twice daily for 12 to […] consecutive days; assay type: functional; conditions: time 12-14 day, read-out: TGI
# [22] = Cmax in Beagle dog at 5 mg/kg, ig measured upto 24 hrs by LC-MS/MS analysis; assay type: ADME, organism-based, Canis lupus familiaris; design: route […], dose 5 mg/kg, time <=24; conditions: in vivo, po
# [23] = Half life in Beagle dog at 1 mg/kg, iv measured upto 24 hrs by LC-MS/MS analysis; assay type: ADME, organism-based, Canis lupus familiaris; conditions: in vivo
# [24] = biological target: BDNF/NT-3 growth factors receptor (Homo sapiens) (UniProt Q16620); assay: Inhibition of TRKB (unknown origin) at 1 uM relative to control
# [25] = biological target: Serine/threonine-protein kinase DCLK2 (Homo sapiens) (UniProt Q8N568); assay: Inhibition of DCK2 (unknown origin) at 1 uM relative to control
# [26] = Plasma protein binding in human; assay type: ADME, cell-free; conditions: read-out: PPB (converted)
# [27] = biological target: Serine/threonine-protein kinase PLK1 (Homo sapiens) (UniProt P53350); assay: Inhibition of PLK1 (unknown origin) at 1 uM relative to control
# [28] = biological target: Serine/threonine-protein kinase pim-1 (Homo sapiens) (UniProt P11309); assay: Inhibition of PIM1 (unknown origin) at 1 uM relative to control
# [29] = Oral bioavailability in Beagle dog at 5 mg/kg measured upto 24 hrs by LC-MS/MS analysis; assay type: ADME, organism-based, Canis lupus familiaris; conditions: in vivo
# [30] = Clearance in Beagle dog at 5 mg/kg, ig measured upto 24 hrs by LC-MS/MS analysis; assay type: ADME, organism-based, Canis lupus familiaris; conditions: in vivo, po
# [31] = biological target: Platelet-derived growth factor receptor alpha (Homo sapiens) (UniProt P16234); assay: Inhibition of PDGFRalpha (unknown origin) at 1 uM relative to control
# [32] = biological target: High affinity nerve growth factor receptor (Homo sapiens, UniProt P04629, G595R)
# [33] = biological target: Vascular endothelial growth factor receptor 1 (Homo sapiens) (UniProt P17948); assay: Inhibition of FLT1 (unknown origin) at 1 uM relative to control
# Vascular endothelial growth factor receptor 1 (Homo sapiens), sequence (P17948 whole entry): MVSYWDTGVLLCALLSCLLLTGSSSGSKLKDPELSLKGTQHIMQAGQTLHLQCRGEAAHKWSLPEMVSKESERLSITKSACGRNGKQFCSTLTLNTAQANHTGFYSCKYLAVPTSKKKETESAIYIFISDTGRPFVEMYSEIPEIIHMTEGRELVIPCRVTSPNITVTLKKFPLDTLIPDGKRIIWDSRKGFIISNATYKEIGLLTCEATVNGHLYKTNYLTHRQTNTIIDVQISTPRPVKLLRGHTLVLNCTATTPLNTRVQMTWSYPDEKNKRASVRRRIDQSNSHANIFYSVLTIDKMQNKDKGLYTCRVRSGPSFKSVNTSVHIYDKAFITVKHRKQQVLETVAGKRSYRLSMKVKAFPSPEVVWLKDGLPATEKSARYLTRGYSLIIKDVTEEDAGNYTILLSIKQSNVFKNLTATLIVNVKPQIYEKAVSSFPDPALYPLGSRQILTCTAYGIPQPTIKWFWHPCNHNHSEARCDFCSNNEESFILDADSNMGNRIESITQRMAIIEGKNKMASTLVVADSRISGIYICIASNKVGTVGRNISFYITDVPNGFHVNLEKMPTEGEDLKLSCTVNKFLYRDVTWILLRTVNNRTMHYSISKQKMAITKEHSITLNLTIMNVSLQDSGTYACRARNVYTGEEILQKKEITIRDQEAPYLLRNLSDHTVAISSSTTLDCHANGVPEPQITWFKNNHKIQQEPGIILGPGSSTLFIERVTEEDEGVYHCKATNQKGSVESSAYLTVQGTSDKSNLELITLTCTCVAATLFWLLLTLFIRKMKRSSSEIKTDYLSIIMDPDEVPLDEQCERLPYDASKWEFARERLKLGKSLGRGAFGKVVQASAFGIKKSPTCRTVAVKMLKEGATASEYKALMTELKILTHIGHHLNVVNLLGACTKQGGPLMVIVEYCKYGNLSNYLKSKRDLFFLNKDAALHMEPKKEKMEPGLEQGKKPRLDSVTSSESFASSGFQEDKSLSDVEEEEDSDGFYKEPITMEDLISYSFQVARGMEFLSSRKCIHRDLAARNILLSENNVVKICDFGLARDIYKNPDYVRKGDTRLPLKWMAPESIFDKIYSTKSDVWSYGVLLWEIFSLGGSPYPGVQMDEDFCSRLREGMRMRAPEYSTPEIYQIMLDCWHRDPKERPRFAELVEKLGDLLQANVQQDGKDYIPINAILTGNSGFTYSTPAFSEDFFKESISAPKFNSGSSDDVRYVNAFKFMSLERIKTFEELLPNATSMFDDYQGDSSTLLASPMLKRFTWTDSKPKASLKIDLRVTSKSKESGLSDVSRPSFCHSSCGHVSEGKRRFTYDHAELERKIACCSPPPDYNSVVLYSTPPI
# [34] = AUC(0 to infinity) in Sprague-Dawley rat at 1 mg/kg, iv measured upto 24 hrs by LC-MS/MS analysis; assay type: ADME, organism-based; design: route intravenous, dose 1 mg/kg, time <=24; conditions: in vivo
# [35] = Clearance in Sprague-Dawley rat at 1 mg/kg, iv measured upto 24 hrs by LC-MS/MS analysis; assay type: ADME, organism-based; conditions: in vivo
# [36] = biological target: PAS domain-containing serine/threonine-protein kinase (Homo sapiens) (UniProt Q96RG2); assay: Inhibition of PASK (unknown origin) at 1 uM relative to control
# [37] = tested on: BaF3; assay: animal or person; assay type: functional; conditions: Mus musculus, BaF3, po; dose 100 mg/kg; time 12-14 day; read-out: TGI
# [38] = biological target: Mitogen-activated protein kinase 3 (Homo sapiens) (UniProt P27361); assay: Inhibition of ERK1 (unknown origin) at 1 uM relative to control
# [39] = biological target: Rho-associated protein kinase 1 (Homo sapiens) (UniProt Q13464); assay: Inhibition of ROCK1 (unknown origin) at 1 uM relative to control
# Rho-associated protein kinase 1 (Homo sapiens), sequence (Q13464 2-1354 limits assumed): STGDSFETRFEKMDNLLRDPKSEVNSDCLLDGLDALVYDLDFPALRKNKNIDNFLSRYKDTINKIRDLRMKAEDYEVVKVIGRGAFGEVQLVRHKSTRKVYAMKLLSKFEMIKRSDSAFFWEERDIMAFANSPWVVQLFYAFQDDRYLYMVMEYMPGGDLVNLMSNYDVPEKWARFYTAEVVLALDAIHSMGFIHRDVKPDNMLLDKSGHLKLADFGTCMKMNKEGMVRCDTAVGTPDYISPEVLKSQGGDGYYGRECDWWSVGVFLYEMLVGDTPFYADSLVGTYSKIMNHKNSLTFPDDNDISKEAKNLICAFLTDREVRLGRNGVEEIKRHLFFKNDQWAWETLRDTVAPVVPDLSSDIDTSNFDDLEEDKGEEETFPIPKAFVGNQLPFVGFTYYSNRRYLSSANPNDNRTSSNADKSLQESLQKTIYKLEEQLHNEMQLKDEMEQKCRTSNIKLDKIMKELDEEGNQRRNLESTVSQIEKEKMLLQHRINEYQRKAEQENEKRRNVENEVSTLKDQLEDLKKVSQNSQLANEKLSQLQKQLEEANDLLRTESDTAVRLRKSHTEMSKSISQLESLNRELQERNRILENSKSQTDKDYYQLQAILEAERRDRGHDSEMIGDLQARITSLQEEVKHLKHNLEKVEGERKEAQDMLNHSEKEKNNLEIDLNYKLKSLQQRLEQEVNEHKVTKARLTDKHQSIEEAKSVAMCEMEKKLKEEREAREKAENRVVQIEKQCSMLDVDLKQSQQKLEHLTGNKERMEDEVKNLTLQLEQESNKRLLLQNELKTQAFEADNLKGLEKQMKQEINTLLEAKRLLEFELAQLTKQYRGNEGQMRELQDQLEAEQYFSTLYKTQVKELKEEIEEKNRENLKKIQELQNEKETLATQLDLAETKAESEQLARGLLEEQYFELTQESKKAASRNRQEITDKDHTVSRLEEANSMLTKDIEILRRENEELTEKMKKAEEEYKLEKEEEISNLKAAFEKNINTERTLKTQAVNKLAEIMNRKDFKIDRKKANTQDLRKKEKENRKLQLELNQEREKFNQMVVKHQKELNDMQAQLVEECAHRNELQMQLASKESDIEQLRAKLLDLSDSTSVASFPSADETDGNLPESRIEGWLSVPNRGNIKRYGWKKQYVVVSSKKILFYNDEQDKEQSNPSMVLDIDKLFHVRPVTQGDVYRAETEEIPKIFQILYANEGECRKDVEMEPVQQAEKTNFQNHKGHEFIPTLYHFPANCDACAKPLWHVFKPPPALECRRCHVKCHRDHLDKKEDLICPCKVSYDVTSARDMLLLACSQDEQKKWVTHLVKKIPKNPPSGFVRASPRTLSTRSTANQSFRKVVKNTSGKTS
# [40] = Toxicity in BALB/c mouse xenografted with mouse BAF3 cells harboring ETV6 fused TRKC G623R mutant assessed as mortality at 15 to 30 mg/kg, po administered twice daily for 12 to […] consecutive days; assay type: organism-based; conditions: in vivo, dose lower 15 mg/kg, time lower 12 day, dose upper 30 mg/kg, time upper 14 day
# [41] = tested on: BaF3; assay: Antiproliferative activity against mouse BaF3 cells transfected with ETV6-wild type TRKB assessed as cell viability incubated for 72 hrs by CCK8 assay; assay type: functional, cell-based; conditions: BaF3, 72 h
structure (smiles),measurement,setting,value
C[C@@H](Nc1ccn2ncc(-c3cnn(CCO)c3)c2n1)c1cc(F)ccc1OCC(F)F,Activity,[1],Non-Toxic
same,inhibition,[2],> 80%
same,IC50,[3],> 10000 nM
same,inhibition,[4],< 50%
same,AUC(0-inf),[5],540 ng·h/mL
same,Cmax,[6],1500 ng/mL
same,inhibition,[7],> 80%
same,inhibition in vivo at 5 mg/kg,[8],64%
same,inhibition,[9],< 50%
same,IC50,[10],0.2 nM
same,Vz,[11],4.77 L/kg
same,Vd,[12],4.94 L/kg
same,inhibition,[13],> 80%
same,inhibition,[14],< 50%
same,IC50,[15],0.2 nM
same,inhibition,[16],< 50%
same,inhibition,[17],< 50%
same,inhibition,[18],< 50%
same,inhibition at 10 µM,[19],23%
same,inhibition,[20],< 50%
same,inhibition in vivo at 30 mg/kg,[21],88%
same,Cmax,[22],1570 ng/mL
same,half-life,[23],7.2 h
same,inhibition,[24],> 80%
same,inhibition,[25],< 50%
same,fraction unbound,[26],0.044
same,inhibition,[27],< 50%
same,inhibition,[28],< 50%
same,bioavailability,[29],92%
same,CL/F,[30],9.17 mL/min/kg
same,inhibition,[31],< 50%
same,IC50,[32],0.2 nM
same,inhibition,[33],< 50%
same,AUC(0-inf),[34],213 ng·h/mL
same,clearance,[35],83.3 mL/min/kg
same,inhibition,[36],< 50%
same,inhibition in vivo at 100 mg/kg,[37],99%
same,inhibition,[38],< 50%
same,inhibition,[39],< 50%
same,Activity,[40],Non-Toxic
same,IC50,[41],0.3 nM
